According to ChEMBL document CHEMBL1140014, “Synthesis and evaluation of pyrazolo[3,4-b]pyridine CDK1 inhibitors as anti-tumor agents” (Bioorg Med Chem Lett, 2007):
≈ marks a conversion by molar mass, not a printed value.

Assays:
[1] = Solubility in 20% hydroxyl propyl beta-cyclodextrin; type: physicochemical; settings: 20% hydroxypropyl beta-cyclodextrin solution
[2] = Inhibition of Aurora2; design: species or system Homo sapiens
[3] = molecular target: Vascular endothelial growth factor receptor 2 (Homo sapiens, UniProt P35968); test: Inhibition of VEGFR2
[4] = test system: HeLa; test: cells; settings: Homo sapiens
[5] = test system: A-375; test: cells; settings: Homo sapiens
[6] = test system: HCT-116; test: cells; settings: Homo sapiens
[7] = Oral bioavailability in rat at 10 mg/kg; type: ADME, organism-based; settings: in vivo
[8] = Half life in rat at 2 mg/kg, iv; type: ADME, organism-based; design: dose 2 mg/kg, route intravenous; settings: in vivo
[9] = Cmax in rat at 2 mg/kg, iv; type: ADME, organism-based; design: dose 2 mg/kg, route intravenous; settings: in vivo
[10] = Half life in rat at 10 mg/kg, po; type: ADME, organism-based; design: dose 10 mg/kg, route oral; settings: in vivo
[11] = Cmax in rat at 10 mg/kg, po; type: ADME, organism-based; design: dose 10 mg/kg, route oral; settings: in vivo
[12] = AUC in rat at 10 mg/kg, po; type: ADME, organism-based; design: dose 10 mg/kg, route oral; settings: plasma
[13] = test system: Rattus norvegicus; test: (§1) AUC in rat at 2 mg/kg, iv; type: ADME, organism-based, Plasma; design: dose 2 mg/kg, route intravenous; settings: in vivo
[14] = molecular target: Receptor tyrosine-protein kinase erbB-2 (Homo sapiens, UniProt P04626); test: Inhibition of HER2
[15] = molecular target: Proto-oncogene tyrosine-protein kinase receptor Ret (Homo sapiens, UniProt P07949); test: Inhibition of RET
[16] = molecular target: Cyclin-dependent kinase 1 (Homo sapiens, UniProt P06493); test: Inhibition of CDK1
[17] = Clearance in rat at 2 mg/kg, iv; type: ADME, organism-based; design: dose 2 mg/kg, route intravenous; settings: in vivo
[18] = as §1; type: ADME, organism-based, Plasma; design: dose 2 mg/kg, route intravenous; settings: plasma

Vascular endothelial growth factor receptor 2, sequence (P35968 whole entry): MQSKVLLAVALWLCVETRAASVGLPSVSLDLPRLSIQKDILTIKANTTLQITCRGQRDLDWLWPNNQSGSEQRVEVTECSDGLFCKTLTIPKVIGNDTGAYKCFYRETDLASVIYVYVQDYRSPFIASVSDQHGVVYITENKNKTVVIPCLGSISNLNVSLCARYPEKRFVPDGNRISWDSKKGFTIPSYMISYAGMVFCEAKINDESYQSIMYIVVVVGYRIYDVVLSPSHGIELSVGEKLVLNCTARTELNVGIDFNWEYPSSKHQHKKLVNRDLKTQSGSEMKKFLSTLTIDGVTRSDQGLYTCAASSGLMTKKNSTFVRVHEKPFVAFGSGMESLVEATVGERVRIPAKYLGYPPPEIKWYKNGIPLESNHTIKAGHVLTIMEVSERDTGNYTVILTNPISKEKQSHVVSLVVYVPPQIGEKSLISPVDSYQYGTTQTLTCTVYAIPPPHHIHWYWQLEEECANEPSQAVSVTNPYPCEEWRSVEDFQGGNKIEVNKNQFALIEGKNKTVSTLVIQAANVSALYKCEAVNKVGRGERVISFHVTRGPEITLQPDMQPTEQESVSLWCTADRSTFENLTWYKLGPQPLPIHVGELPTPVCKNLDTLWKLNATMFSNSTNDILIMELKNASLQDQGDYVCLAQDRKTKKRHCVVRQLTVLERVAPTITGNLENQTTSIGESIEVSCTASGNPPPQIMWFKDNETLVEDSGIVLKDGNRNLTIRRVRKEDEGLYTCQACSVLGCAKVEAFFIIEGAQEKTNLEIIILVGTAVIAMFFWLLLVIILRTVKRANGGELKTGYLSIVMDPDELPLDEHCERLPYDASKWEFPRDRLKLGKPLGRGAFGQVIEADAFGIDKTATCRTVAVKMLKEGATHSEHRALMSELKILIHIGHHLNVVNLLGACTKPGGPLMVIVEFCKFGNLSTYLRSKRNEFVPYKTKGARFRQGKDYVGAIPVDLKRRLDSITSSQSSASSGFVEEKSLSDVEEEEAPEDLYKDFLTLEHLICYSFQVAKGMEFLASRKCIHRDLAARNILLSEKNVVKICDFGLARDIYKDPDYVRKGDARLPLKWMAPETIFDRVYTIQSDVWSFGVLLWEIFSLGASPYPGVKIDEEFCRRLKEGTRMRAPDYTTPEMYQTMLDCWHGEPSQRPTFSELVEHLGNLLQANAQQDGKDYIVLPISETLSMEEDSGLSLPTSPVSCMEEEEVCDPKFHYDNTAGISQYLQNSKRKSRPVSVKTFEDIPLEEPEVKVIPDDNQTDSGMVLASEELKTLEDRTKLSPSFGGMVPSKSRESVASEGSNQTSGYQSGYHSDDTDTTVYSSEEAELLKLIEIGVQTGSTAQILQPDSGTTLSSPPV
Cyclin-dependent kinase 1, sequence (P06493 whole entry): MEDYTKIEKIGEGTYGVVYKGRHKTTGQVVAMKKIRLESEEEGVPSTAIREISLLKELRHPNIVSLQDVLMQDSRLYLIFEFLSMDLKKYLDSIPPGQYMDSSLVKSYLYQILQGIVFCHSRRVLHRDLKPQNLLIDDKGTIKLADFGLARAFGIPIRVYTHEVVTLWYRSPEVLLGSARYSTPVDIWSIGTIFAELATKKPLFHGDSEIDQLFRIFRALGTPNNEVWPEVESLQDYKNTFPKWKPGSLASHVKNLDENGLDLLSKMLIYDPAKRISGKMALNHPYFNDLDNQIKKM
Receptor tyrosine-protein kinase erbB-2, sequence (P04626 whole entry): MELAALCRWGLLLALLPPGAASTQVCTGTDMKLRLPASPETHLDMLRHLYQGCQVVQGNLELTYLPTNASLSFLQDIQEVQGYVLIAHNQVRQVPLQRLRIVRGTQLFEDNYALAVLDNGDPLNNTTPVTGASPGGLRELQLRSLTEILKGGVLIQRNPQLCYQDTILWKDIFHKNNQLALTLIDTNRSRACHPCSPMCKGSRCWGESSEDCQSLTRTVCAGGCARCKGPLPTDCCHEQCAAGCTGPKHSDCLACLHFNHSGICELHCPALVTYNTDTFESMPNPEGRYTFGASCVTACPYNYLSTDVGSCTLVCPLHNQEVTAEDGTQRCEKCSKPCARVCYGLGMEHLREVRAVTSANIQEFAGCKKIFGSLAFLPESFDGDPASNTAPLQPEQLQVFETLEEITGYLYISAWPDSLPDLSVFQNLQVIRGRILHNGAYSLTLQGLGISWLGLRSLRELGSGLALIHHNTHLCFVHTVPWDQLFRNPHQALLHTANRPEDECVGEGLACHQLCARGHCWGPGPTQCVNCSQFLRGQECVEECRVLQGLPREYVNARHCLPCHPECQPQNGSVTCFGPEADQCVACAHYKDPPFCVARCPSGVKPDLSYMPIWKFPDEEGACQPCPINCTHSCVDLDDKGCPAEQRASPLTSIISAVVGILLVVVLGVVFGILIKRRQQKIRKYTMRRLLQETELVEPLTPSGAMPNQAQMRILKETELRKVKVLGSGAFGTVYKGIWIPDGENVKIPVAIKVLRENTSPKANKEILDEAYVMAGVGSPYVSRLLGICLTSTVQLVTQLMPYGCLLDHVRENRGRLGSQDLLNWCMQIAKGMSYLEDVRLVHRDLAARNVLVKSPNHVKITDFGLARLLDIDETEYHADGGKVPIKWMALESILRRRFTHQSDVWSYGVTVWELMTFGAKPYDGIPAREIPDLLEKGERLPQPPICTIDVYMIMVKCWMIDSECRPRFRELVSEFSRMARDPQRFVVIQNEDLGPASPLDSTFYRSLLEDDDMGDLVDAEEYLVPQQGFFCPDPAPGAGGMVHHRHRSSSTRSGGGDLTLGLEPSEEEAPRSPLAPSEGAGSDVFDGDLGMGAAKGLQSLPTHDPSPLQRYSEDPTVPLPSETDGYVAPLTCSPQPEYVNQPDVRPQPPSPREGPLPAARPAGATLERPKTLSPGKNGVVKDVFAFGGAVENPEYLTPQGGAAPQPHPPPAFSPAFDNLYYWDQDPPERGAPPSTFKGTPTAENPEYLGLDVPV
Proto-oncogene tyrosine-protein kinase receptor Ret, sequence (P07949 whole entry): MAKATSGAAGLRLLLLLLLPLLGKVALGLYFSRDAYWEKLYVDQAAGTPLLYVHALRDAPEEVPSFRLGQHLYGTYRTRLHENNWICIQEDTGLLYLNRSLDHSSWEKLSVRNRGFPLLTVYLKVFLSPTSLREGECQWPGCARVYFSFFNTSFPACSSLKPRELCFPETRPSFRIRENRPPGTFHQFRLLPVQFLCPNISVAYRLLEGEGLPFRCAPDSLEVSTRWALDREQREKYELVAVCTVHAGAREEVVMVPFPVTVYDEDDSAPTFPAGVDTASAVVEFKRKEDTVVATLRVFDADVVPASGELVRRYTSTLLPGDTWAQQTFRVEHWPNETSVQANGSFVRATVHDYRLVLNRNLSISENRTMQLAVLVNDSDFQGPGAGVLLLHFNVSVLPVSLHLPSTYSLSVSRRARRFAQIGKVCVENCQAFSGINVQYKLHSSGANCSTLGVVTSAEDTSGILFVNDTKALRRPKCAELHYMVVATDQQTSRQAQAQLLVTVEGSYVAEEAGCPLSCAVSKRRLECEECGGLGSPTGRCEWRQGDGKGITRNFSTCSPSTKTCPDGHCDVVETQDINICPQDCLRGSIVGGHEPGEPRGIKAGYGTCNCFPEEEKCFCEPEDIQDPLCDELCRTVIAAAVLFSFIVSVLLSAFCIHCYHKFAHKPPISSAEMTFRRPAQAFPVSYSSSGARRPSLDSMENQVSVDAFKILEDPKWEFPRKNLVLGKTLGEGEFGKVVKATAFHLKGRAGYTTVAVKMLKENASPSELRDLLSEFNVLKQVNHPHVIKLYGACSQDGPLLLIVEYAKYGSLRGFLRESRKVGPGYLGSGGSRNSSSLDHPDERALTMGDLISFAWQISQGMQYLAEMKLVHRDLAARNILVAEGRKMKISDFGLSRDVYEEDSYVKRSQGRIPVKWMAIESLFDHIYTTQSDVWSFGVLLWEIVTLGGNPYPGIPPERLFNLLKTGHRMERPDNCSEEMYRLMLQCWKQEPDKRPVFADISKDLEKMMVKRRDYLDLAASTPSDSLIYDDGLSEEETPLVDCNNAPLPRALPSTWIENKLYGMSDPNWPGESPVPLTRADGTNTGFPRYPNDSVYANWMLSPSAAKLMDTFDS

Structure (SMILES)	solubility [1]	IC50 [2]	IC50 [3]	IC50 [4]	IC50 [5]	IC50 [6]	bioavailability [7]	half-life [8]	Cmax [9]	half-life [10]	Cmax [11]	AUC [12]	AUC [13]	IC50 [14]	IC50 [15]	IC50 [16]	clearance [17]	AUC [18]
CCNCc1cncc(-c2cnc3[nH]nc(-c4nc5cc(F)c(F)cc5[nH]4)c3c2)c1	12.5 mg/mL (≈ 30.8 mM)	> 1000 nM	100 nM	140 nM	46 nM	95 nM	–	–	–	–	–	–	–	–	–	–	–	–
CCNCc1cncc(-c2cnc3n[nH]c(-c4nc5ccc(F)cc5[nH]4)c3c2)c1	12.5 mg/mL (≈ 32.3 mM)	800 nM	150 nM	59 nM	51 nM	94 nM	8%	966 min	217 ng/mL	1880 min	3.8 ng/mL	150 ng·h/mL	372 ng·h/mL	–	–	–	–	–
OCc1cccc2[nH]c(-c3n[nH]c4ncc(-c5cncc6ccccc56)cc34)nc12	–	> 10000 nM	> 100000 nM	1760 nM	–	890 nM	–	–	–	–	–	–	–	240 nM	–	–	–	–
COCc1cccc2[nH]c(-c3n[nH]c4ncc(-c5cncc6ccccc56)cc34)nc12	–	320 nM	460 nM	15 nM	10 nM	10 nM	–	–	–	–	–	–	–	–	–	–	–	–
CC(C)OCc1cccc2[nH]c(-c3n[nH]c4ncc(-c5cncc6ccccc56)cc34)nc12	–	> 1000 nM	100 nM	2140 nM	910 nM	2880 nM	–	–	–	–	–	–	–	–	–	–	–	–
COCc1cccc2[nH]c(-c3n[nH]c4ncc(-c5cnc6ccccc6c5)cc34)nc12	–	> 100000 nM	> 100000 nM	1460 nM	11 nM	–	–	–	–	–	–	–	–	> 100000 nM	> 100 µM	–	–	–
COCc1cccc2[nH]c(-c3n[nH]c4ncc(-c5ccncc5)cc34)nc12	–	> 1000 nM	110 nM	3090 nM	23 nM	62 nM	–	–	–	–	–	–	–	–	–	–	–	–
COCc1cccc2[nH]c(-c3n[nH]c4ncc(-c5cncnc5)cc34)nc12	–	10000 nM	110 nM	9910 nM	160 nM	330 nM	–	–	–	–	–	–	–	–	–	–	–	–
CCN(CC)Cc1cccc2[nH]c(-c3n[nH]c4ncc(-c5cncc6ccccc56)cc34)nc12	–	–	1550 nM	29 nM	47 nM	31 nM	–	–	–	–	–	–	–	89 nM	–	1.8 nM	–	–
CN1CCN(c2ccc3[nH]c(-c4n[nH]c5ncc(-c6cncc7ccccc67)cc45)nc3c2)CC1	–	–	–	450 nM	160 nM	360 nM	4%	43.8 min	1000 ng/mL	198 min	65 ng/mL	173 ng·h/mL	–	–	–	14 nM	34.9 mL/min/kg	959 ng·h/mL
c1ccc2c(-c3cnc4[nH]nc(-c5nc6cc(N7CCOCC7)ccc6[nH]5)c4c3)cncc2c1	–	41 nM	1070 nM	400 nM	300 nM	370 nM	–	–	–	–	–	–	–	–	–	–	–	–
O=C(O)c1cccc2[nH]c(-c3n[nH]c4ncc(-c5cncc6ccccc56)cc34)nc12	–	> 10000 nM	> 10000 nM	> 10000 nM	> 10000 nM	> 10000 nM	–	–	–	–	–	–	–	–	–	–	–	–
CC(C)NC(=O)c1cccc2[nH]c(-c3n[nH]c4ncc(-c5cncc6ccccc56)cc34)nc12	–	> 100 nM	380 nM	35 nM	65 nM	42 nM	–	–	–	–	–	–	–	–	–	39 nM	–	–
